pKd: −log10 of the molar value. Values joined by “and” are separate entries in the source; they are usually repeats but may differ in a detail not shown here. Equal values may be shown once.
Key:
[1] = tested on: SARS CoV-2 S-protein (Wuhan-Hu-1 strain, spike trimer) expressing PsV, HEK293T cells stably expressing human ACE2; type: cell-based, SARS-CoV-2 (Wuhan-Hu-1 strain)
[2] = tested on: IL-1β mRNA, human coronary microvascular endothelial cells; type: cell-based
[3] = tested on: IL-6 mRNA, human coronary microvascular endothelial cells; type: cell-based
[4] = tested on: MCP-1 mRNA, human coronary microvascular endothelial cells; type: cell-based
[5] = tested on: SRBD internalisation in ACE2 expressing A549 cells; type: cell-based, human
[6] = tested on: VCAM mRNA, human coronary microvascular endothelial cells; type: cell-based
purified human ACE2-Fc = target: T1, purified human ACE2-Fc (Homo sapiens, UniProt Q9BYF1); experiment: biochemical; type: binding
T1 construct: purified recombinant human ACE2-Fc (Q18 –S740, peptidase domain) protein; purchased GenScript
T1 sequence (Q9BYF1 18-740): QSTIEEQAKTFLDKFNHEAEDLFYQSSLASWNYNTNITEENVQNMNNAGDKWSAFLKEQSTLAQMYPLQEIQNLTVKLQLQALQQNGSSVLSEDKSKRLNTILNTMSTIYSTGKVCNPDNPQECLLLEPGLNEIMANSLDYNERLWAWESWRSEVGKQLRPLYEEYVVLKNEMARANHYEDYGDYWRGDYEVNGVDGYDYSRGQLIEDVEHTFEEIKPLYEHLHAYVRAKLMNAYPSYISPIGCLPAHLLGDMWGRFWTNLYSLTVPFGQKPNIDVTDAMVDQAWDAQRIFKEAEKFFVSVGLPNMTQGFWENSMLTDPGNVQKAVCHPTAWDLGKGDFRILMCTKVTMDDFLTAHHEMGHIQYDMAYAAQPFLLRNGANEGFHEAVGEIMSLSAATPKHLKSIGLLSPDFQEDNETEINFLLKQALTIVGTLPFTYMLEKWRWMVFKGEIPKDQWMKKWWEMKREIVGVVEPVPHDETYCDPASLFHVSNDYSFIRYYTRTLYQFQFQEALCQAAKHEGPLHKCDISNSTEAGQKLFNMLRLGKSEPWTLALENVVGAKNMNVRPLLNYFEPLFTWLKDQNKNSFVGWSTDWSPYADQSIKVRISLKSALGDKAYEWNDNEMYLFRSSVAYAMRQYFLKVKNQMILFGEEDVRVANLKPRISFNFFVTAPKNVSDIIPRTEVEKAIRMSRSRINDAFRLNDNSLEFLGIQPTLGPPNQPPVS

Compound	inhibition of spike PsV cell entry by soluble ACE2 (in words) [1]	inhibition of spike PsV cell entry (in words) ([1]; N = 3)	IL-1β mRNA expression, peptide alone [2]	S1 induced IL-1β mRNA expression, peptide pre-treated [2]	IL-6, MEAN [3]	IL-6 mRNA expression, peptide alone [3]	S1 induced IL-6 mRNA expression, peptide pre-treated [3]	MCP-1 mRNA expression, peptide alone [4]	S1 induced MCP-1 mRNA expression, peptide pre-treated [4]	inhibition of SRBD internalisation (in words) [5]	S1 induced VCAM mRNA expression, peptide pre-treated [6]	VCAM mRNA expression, peptide alone [6]	pKd (purified human ACE2-Fc)	binding to ACE2 (in words) (purified human ACE2-Fc)
soluble ACE2 protein	completely blocked spike PsV cell entry													
CC(=O)N[C@@H](CO)C(=O)N[C@@H](CCCCN)C(=O)N[C@H](C(=O)NCC(=O)NCC(=O)N[C@@H](CC(N)=O)C(=O)N[C@@H](Cc1ccc(O)cc1)C(=O)N[C@@H](CC(N)=O)C(=O)N[C@@H](Cc1ccc(O)cc1)C(=O)N[C@@H](CC(C)C)C(=O)N[C@@H](Cc1ccc(O)cc1)C(=O)N[C@@H](CCCNC(=N)N)C(=O)N[C@@H](CC(C)C)C(=O)N[C@@H](Cc1ccccc1)C(=O)N[C@@H](CCCNC(=N)N)C(=O)N[C@@H](CCCCN)C(N)=O)C(C)C [RBM1]		did not inhibit PsV cell entry	did not mimic S1 protein-induced inflammation	did not attenuate the S1 induced inflammatory response	0.7896 and 1.445	did not mimic S1 protein-induced inflammation	did not attenuate the S1 induced inflammatory response	did not mimic S1 protein-induced inflammation	did not attenuate the S1 induced inflammatory response	marked, yet non-significant reduction	did not attenuate the S1 induced inflammatory response	did not mimic S1 protein-induced inflammation	6.68	
Ac-NYGLQGSPFGYQETPYPFCNFVQYG-NH2 [RBM2A-Sc]					0.966 and 1.58					did not significantly inhibit SRBD-mediated internalisation				appeared to bind to ACE2 in a dose-dependent manner (Fig 4C) saturation of ACE2 binding was not achieved

Source: publication PMC8601423 (PLoS ONE, 2021)
